Experimental data reported in patent US9346759B2, “Polymorphic crystal forms of 5-(2-{[6-(2,2-difluoro-2-phenylethoxy)hexyl]amino}-1-(R)-hydroxyethyl)-8-hydroxyquinolin-2(1H)-one, heminapadisytlate as agonist of the β2 adrenergic receptor” (ALMIRALL, S.A., priority 2012, dated 2016).

Assay: Aerodynamic assessment of fine particles of the inhalation powder composition (modified Anderson Cascade Impactor, Genuair inhaler)
Format: physicochemical
Details: dry powder blend of the polymorph with lactose carrier, no additive material, ACI 60 L/min, fine particles <5 μm, HPLC
Excerpt: The process for manufacturing the pharmaceutical composition comprising a polymorphic salt of compound (I) (Type α, Type β or Hydrate) and a carrier is as follows: • 1. 20% by weight of lactose used as a carrier was blended with one polymorph (Type α, Type β or Hydrate). The resulting mixture was sieved and mixed again. • 2. The remaining 80% by weight of lactose was sieved and added to the mixture of Step 1. The whole mixture was blended, sieved and blended again resulting in the final inhalation powder blend.
The test on the aerodynamic assessment of the fine particles (FPD<5 μm) of the inhalation powder composition is carried out in combination with the Genuair® inhaler. The Fine Particle Fraction of the three formulations was calculated on basis of the principles of the aerodynamic assessment of fine particles according to the Current European pharmacopoeia (Ph. Eur. Chapter 2.9.18) and USP<601> by the aid of aerodynamic impactor analyses using a modified Anderson Cascade Impactor (ACI), 60 L/min-configuration including pre-separator, stage-1, -0, and stage 1-7 (filter stage). The content of the active ingredient on each stage of the impactor is determined my means of HPLC.
The fine particle dose (FPD<5 μm) is calculated based on Ph. Eur. Chapter 2.9.18 and USP<601> by point to point interpolation per dosage. […]
To obtain the Fine Particle Dose, the cumulative percent value (y-value) at which the line of data plot crosses 5 μm mark is determined. […] FPD [μg]=yFPD·F/100% • FPD=Fine particle dose<5 μm of the active ingredient per dosage [μg]. • yFPD=y-value of cumulative percentage of mass at a particle size of 5 μm evaluated by linear point to point interpolation [%]. • F=sum of mass on stage-1-stage 7 (filter) per dosage [μg].
The Fine Particle Fraction (FPF) is the percentage of the emitted dose that the Fine Particel Dose represents and is calculated as follows: FPF [%]=(FPD [μg]/Total sum [μg])*100 • Total sum=the amount of drug substance in the respective impactor (Adapter-Filter).

| Structure (SMILES) | FPF (%) (hemihydrate) | FPF (%) |
| --- | --- | --- |
| O=c1ccc2c([C@@H](O)CNCCCCCCOCC(F)(F)c3ccccc3)ccc(O)c2[nH]1 [Polymorph Hydrate, 5-(2-{[6-(2,2-difluoro-2-phenylethoxy)hexyl]amino}-1(R)-hydroxyethyl)-8-hydroxyquinolin-2(1H)-one, heminapadisylate, hemihydrate] | 49.8 | – |
| O=c1ccc2c([C@@H](O)CNCCCCCCOCC(F)(F)c3ccccc3)ccc(O)c2[nH]1 [Comparative Example, 5-(2-{[6-(2,2-difluoro-2-phenylethoxy)hexyl]amino}-1(R)-hydroxyethyl)-8-hydroxyquinolin-2(1H)-one, heminapadisylate, reference compound] | – | 42.2 |
| O=c1ccc2c([C@@H](O)CNCCCCCCOCC(F)(F)c3ccccc3)ccc(O)c2[nH]1 [Polymorph Type β, 5-(2-{[6-(2,2-difluoro-2-phenylethoxy)hexyl]amino}-1(R)-hydroxyethyl)-8-hydroxyquinolin-2(1H)-one, heminapadisylate] | – | 49.3 |
